Assay results published in US7005517B2, “Paramagnetic metal-phthalocyanine complex compounds and contrast agent using the same” (priority 2001, dated 2006).

How the values were obtained:
[1] = T1 & T2 measurements of contrast agents (proton relaxation times by NMR); format: physicochemical; settings: for T1 / T2: 0.005M in 0.08% physiological saline, 10% heavy water
Protocol: To these samples, 10% of heavy water was added to obtain a lock signal. As for the blank, 0.08% physiological saline solution was prepared. […] The respective RD values were set sufficiently high in order to eliminate their affects to the test results. […] The respective values of vd and vc as used were those values which were sufficient for parameter-fitting.

[2] = Wash-out time / retention time in blood and tissues; settings: in vivo
Protocol: The retention time (in blood) of the complex compound of said structural formula (I) according to the present invention is within the clinically effective range. Whereas DTPA-Gd, which is a conventional contrast agent, has a wash-out time of approximately 30 minutes, the compound of said structural formula (I) of the present invention has a wash-out time (from the tissues) of approximately 1 hour and 30 minutes. […] Today, in using MR angiography, which has undergone significant advancement, a pulse sequence is required. However, the contrast agent of the present invention can contrast vessels without such pulse sequence while it is also useful as a diagnostic contrast agent for intravenous administration.

[3] = washed out via urination; cited from earlier work
[4] = Comparative contrast imaging (spin-echo MRI) in mouse after abdominal administration of contrast agents; format: in vivo; settings: 0.01M at 0.2 ml/10 g, scanned 40 minutes after administration, Set 1 and Set 2
Protocol: As for the samples for obtaining magnetic resonance imaging, the appropriate amounts of Gd-DTPA (a commercial contrast agent, Magnevist manufactured by Schering, Inc.), octa(1,4,7,10-tetraoxaundecyl)Gd-phthalocyanine (hereinafter referred to as GdPC-Fuxl-6) and octa(1,4,7,10-tetraoxaundecyl)Mn-phthalocyanine (hereinafter referred to as MnPC-Fuxl-18) were dissolved in 0.08% saline solution respectively, and the respective samples at concentration of 0.01M were used. This was in reference to the administration of commercial Gd-DTPA in human at 0.5M concentration under the condition of 0.4 ml/kg in 0.2 ml.
The above contrast agents of 0.01M concentration were administrated to mouse at 0.2 ml/10 g (female ICR, 27˜30 g, n=6). In the experiment, […], which is the maximum value in the acceptable range of the dose of the contrast agent, were injected to more clearly ascertain their effects. As for the blank for comparison purposes, the solution of 0.08% NaCl was administered. After the abdominal administration of the contrast agents, followed by a thirty-minute wait, the anesthetics (solution of a mixture of rompum, ketamin, and distilled water at 1.5:1.5:7) were injected thereto in order to sufficiently penetrate the contrast agents into the abdominal organs (the images of which were to be examined). […]

[5] = Stability test for contrast agents in physiological saline (UV-spectrum, separation of metal ions); format: physicochemical; settings: 0.01M in 0.08% physiological saline, 50° C., 24 hours
[6] = Light absorption test under X-ray irradiation; format: physicochemical; settings: 2.45 mole concentration, X-ray irradiated, compared to Iron and Super-Iron
Excerpt: The compound of the present invention, GdPC-Fuxl-6, as obtained in Example 1, and the conventional X-ray contrast agents (Iron and Super-Iron) were spread onto the sticks respectively at 2.45 mole concentration, and X-ray was irradiated thereto for comparatively measuring the degree of light absorption.

Compound	T1 ([1]; 80 MHz NMR)	T2 ([1]; 80 MHz NMR)	T1 ([1]; 300 MHz NMR)	T2 ([1]; 300 MHz NMR)	wash-out time [2]	half-life period [3]	T1 (degree of relaxation) ([1]; 80 MHz NMR)	T2 (degree of relaxation) ([1]; 80 MHz NMR)	contrast effects in T1 intensified images [4]	stability (no separation of Gd and Mn ions) [5]	degree of light absorption [6]
O=C([O-])CN(CCN(CC(=O)[O-])CC(=O)[O-])CCN(CC(=O)[O-])CC(=O)[O-].[Gd+3] [Gd-DTPA, complex of diethylenetriaminepentaactic acid (DTPA) and gadolinium (III), reference compound]	0.0484 s	0.0441 s	0.0370 s	0.261 s	approximately 30 minutes	about 14 minutes					
octa(1,4,7,10-tetraoxaundecyl)Gd-phthalocyanine [GdPC-Fuxl-6]	0.0243 s	0.0174 s	0.0488 s	0.0234 s			24.3 ms	17.4 ms	good contrast effects	stabilized for 24 hours	superior characteristics with respect to light absorption
octa(1,4,7,10-tetraoxaundecyl)Mn-phthalocyanine [MnPC-Fuxl-18]	0.191 s	0.0335 s	0.317 s	0.0207 s			191 ms	33.5 ms	good contrast effects	stabilized for 24 hours	
